These are literature values, as cited in PMC4386841 (Journal of the American Chemical Society, 2015).

Read-outs that look alike come from different tables or passages of the source.

Series [1] concerns MIF.

Regarding `COC(=O)C[C@H]1CC(c2ccc(O)cc2)=NO1` [(R)-ISO-1], the figures for the IC50 in series [1] (DOPA as substrate) and in series [1] (independent assay using DOPA) were […] and […], respectively.
As to `O=c1c(-c2ccc(O)c(O)c2)coc2cc(O)ccc12` [Orita-13, 3-(3,4-dihydroxyphenyl)-7-hydroxy-4H-chromen-4-one], the Ki (as a rule, the equilibrium dissociation constant of an inhibitor or competing ligand from its target) in series [1] (dopachrome assay) is 0.038 µM.
On to `CN1C(C(=O)Nc2ccccn2)=C(O)c2ccccc2S1(=O)=O` [Piroxicam], for which the “Aqueous solubility, literature value” is on record as 5.9 µg/mL.
